In brackets after ≈: the same amount, converted by molar mass. Where two headings read alike, the source gives them in different places. One block for each compound: values may come before it.
What was measured:
CYP 2A6 = CYP 2A6 (Homo sapiens (Human), UniProt P11509); test: CYP inhibition in human liver microsomes, 2A6; format: in vitro ADME
purified recombinant ILK = purified recombinant ILK (Homo sapiens (Human), UniProt Q13418); test: ILK binding affinity, EnSpire fluorescence intensity; settings: for binding to purified ILK: fluorescence-based method; for Binding Difference ILK (Kd)/EGFR (Kd) / Kd: EnSpire fluorescence intensity; for Kd: read-out: ILK - Binding affinity
Sequence of purified recombinant ILK (Q13418 whole entry): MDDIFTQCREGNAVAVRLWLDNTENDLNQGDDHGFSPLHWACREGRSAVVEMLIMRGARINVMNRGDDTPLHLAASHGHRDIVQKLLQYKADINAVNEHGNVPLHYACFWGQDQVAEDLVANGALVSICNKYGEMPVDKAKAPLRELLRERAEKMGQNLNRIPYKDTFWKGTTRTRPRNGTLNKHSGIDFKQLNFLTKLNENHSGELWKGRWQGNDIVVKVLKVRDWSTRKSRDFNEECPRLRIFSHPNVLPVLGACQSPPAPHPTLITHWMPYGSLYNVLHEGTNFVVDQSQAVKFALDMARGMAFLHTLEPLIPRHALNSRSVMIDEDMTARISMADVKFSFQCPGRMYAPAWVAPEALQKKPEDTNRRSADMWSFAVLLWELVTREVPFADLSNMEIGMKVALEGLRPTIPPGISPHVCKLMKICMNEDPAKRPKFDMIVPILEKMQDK

[1] = Stability in PBS at pH 7.4; format: physicochemical
Stability in SIF = format: physicochemical
EGFR = EGFR (Homo sapiens (Human), UniProt P00533); test: EGFR binding affinity, Nanotemper
Sequence of EGFR (P00533 25-1210): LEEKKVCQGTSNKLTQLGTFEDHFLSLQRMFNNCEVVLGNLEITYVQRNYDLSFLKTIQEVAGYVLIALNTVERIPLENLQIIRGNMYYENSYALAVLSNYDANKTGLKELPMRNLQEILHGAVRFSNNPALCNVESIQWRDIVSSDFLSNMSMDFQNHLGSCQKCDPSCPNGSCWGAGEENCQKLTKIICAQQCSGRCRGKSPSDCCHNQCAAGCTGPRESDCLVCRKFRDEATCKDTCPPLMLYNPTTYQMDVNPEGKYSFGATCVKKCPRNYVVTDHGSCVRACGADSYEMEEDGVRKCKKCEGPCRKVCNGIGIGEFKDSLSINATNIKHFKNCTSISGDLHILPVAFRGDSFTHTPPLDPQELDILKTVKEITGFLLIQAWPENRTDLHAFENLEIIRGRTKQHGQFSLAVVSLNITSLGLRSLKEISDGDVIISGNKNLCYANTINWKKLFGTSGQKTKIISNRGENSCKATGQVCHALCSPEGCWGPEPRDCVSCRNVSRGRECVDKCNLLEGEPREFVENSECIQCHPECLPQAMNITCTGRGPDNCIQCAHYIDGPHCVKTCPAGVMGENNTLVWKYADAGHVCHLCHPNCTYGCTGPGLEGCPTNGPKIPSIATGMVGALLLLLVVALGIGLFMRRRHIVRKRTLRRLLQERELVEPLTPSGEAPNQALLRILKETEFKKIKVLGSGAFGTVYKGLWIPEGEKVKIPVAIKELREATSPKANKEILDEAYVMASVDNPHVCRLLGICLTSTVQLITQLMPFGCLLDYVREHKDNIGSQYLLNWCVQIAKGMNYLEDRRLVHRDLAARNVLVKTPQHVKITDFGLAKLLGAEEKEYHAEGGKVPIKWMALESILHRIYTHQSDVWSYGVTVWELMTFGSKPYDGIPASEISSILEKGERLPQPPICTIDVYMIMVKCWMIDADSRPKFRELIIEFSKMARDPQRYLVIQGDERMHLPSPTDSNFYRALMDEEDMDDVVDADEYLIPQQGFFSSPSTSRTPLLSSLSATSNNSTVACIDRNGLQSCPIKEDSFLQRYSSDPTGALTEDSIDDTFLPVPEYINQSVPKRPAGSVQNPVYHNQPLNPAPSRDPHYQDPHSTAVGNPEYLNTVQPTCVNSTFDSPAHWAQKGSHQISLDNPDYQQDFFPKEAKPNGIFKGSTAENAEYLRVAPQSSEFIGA

ILK = ILK (Homo sapiens (Human), UniProt Q13418); test: ILK binding affinity, Nanotemper
Sequence of ILK (Q13418 whole entry): as the sequence (Q13418 whole entry) above

HepG2 cells = test: Mitochondrial toxicity in HepG2 cells; format: cell-based; settings: HepG2 cells; for Fold change in IC50: Glucose vs Galactose; for IC50: Homo sapiens
[2] = Permeability in Caco2 cell line; format: in vitro ADME; settings: human; for efflux ratio / Papp A→B / Papp B→A: Caco-2; for efflux ratio: Caco2; for Papp A→B: Caco2, A-B; for Papp B→A: Caco2, B-A
[3] = Protein binding in mouse plasma; format: in vitro ADME
[4] = Protein binding in human plasma; format: in vitro ADME
[5] = Protein binding in rat plasma; format: in vitro ADME
Stability in rat plasma = format: in vitro ADME
[6] = Solubility in PBS at pH 7.4; format: physicochemical; settings: aqueous buffer
[7] = Stability in mouse plasma; format: in vitro ADME
[8] = Stability in human plasma; format: in vitro ADME
CYP 2C8 = CYP 2C8 (Homo sapiens (Human), UniProt P10632); test: CYP inhibition in human liver microsomes, 2C8; format: in vitro ADME
Sequence of CYP 2C8 (P10632 whole entry): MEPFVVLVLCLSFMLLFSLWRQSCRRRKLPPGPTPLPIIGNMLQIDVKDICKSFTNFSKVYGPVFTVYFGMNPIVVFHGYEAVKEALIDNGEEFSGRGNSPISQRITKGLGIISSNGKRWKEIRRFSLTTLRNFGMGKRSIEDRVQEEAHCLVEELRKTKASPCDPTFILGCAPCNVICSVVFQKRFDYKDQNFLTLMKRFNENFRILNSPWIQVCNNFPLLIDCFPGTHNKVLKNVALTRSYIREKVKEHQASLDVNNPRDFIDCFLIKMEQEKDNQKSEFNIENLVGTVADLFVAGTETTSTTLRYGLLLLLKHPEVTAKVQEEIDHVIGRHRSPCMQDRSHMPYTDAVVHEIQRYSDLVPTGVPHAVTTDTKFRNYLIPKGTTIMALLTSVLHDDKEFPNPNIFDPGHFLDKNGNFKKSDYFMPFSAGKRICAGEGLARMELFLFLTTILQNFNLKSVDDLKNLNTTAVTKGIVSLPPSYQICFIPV

[9] = Nanotemper, read-out: EGFR - Binding affinity
[10] = Nanotemper, read-out: ILK - Binding affinity
[11] = Galactose, read-out: IC50 (μM)_Galactose
[12] = Glucose, read-out: IC50 (μM)_Glucose
[13] = Caco-2, Caco2, AP-BL, read-out: Recovery (%)AP-BL
[14] = Caco-2, Caco2, BL-AP, read-out: Recovery (%)BL-AP

Sequence of CYP 2A6 (P11509 whole entry): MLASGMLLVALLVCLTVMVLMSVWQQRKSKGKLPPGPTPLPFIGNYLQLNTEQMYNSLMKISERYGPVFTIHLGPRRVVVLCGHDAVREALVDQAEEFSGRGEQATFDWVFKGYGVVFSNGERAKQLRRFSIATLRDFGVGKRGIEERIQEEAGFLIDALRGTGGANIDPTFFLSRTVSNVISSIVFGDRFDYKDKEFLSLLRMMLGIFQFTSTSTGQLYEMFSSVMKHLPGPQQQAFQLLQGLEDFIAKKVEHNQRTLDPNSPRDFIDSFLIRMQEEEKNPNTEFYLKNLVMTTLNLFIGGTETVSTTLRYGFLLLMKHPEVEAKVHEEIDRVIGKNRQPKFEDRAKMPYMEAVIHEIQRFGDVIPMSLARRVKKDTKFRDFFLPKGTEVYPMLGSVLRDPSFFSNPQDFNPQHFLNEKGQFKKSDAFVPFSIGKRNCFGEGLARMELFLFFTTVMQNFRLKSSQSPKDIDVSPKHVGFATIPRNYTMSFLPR

Structure (SMILES): N[C@@H]1C[C@H]1c1ccccc1 (racemic) [Tranylcypromine, reference compound]
IC50 (CYP 2A6): 0.69 µM

Structure (SMILES): CN1Cc2c(ccc3c2OCO3)C2C(O)Cc3cc4c(cc3C21)OCO4 (stereo not drawn) [Chelidonine, reference compound]
binding to purified ILK (purified recombinant ILK): no detectable binding

Structure (SMILES): O=C(O)CCCc1ccc(N(CCCl)CCCl)cc1 [Chlorambucil, reference compound]
Remaining Percentage (%) ([1]; PBS pH 7.4, 0 min): 100.00% | Remaining Percentage (%) ([1]; PBS pH 7.4, 30 min): 37.17% | Remaining Percentage (%) ([1]; PBS pH 7.4, 60 min): 11.53% | Remaining Percentage (%) ([1]; PBS pH 7.4, 120 min): 2.35% | Remaining Percentage (%) ([1]; PBS pH 7.4, 180 min): 0.09% | Remaining Percentage (%) ([1]; PBS pH 7.4, 240 min): 0.03% | Remaining Percentage (%) (Stability in SIF; 0 min): 100.00% | Remaining Percentage (%) (Stability in SIF; 30 min): 58.85% | Remaining Percentage (%) (Stability in SIF; 60 min): 33.12% | Remaining Percentage (%) (Stability in SIF; 120 min): 8.26% | Remaining Percentage (%) (Stability in SIF; 180 min): 2.57% | Remaining Percentage (%) (Stability in SIF; 240 min): 0.79%

Kd (EGFR; [9]): 12.7 µM | Binding Difference ILK (Kd)/EGFR (Kd) (ILK; Nanotemper): 0.5414 | Kd (ILK; [10]): 6.85 µM
Structure (SMILES): C#Cc1cc(Nc2ncnc3cc(OCCOC)ccc23)cc(OCCOC)c1 [Compound 1 New]

Binding Difference ILK (Kd)/EGFR (Kd) (purified recombinant ILK): 1.34 | Kd (purified recombinant ILK): 1.54 µM
Structure (SMILES): C#Cc1cc(C#C)cc(Nc2ncnc3cc(OC)c(OC)cc23)c1 [Compound 4]

Kd (ILK; [10]): 2.44 µM
Structure (SMILES): C#Cc1cc(Nc2ncnc3cc(OCCOC)c(OCCOC)cc23)cc(OCCOC)c1 [Compound 7]

Kd (EGFR; Nanotemper (Table 1), read-out: KD to EGFR): ~8.84 µM | Kd (EGFR; [9]): 8.84 µM | Binding Difference ILK (Kd)/EGFR (Kd) (ILK; Nanotemper): 0.1043 | Kd (ILK; Nanotemper (Table 1), read-out: KD to ILK): ~0.92 µM | Kd (ILK; [10]): 0.922 µM
Structure (SMILES): C#Cc1cc(Nc2ncnc3cc(OCCOC)c(OCCOC)cc23)cc(OCCOCC)c1 [Compound 8]

binding to purified ILK (purified recombinant ILK): no detectable binding
Structure (SMILES): CNC(=O)CCc1cc(-c2ccc(-c3ccc(C(F)(F)F)cc3)cc2)n(-c2ccc(N3CCNCC3)cc2)n1 [Compound 22, reference compound]

Structure (SMILES): C[C@@H]1CC[C@@]2(OC1)O[C@H]1[C@@H](O)[C@H]3[C@@H]4CC[C@H]5C[C@@H](O[C@@H]6O[C@H](CO)[C@H](O[C@@H]7O[C@H](CO)[C@@H](O)[C@H](O[C@@H]8OC[C@@H](O)[C@H](O)[C@H]8O)[C@H]7O[C@@H]7O[C@H](CO)[C@H](O)[C@H](O[C@@H]8O[C@H](CO)[C@@H](O)[C@H](O)[C@H]8O)[C@H]7O)[C@H](O)[C@H]6O)[C@H](O)C[C@]5(C)[C@H]4CC[C@]3(C)[C@H]1[C@@H]2C [Digitonin]
Fold change in IC50 (HepG2 cells): 2.40 | IC50 (HepG2 cells; [11]): 1.79 µM | IC50 (HepG2 cells; [12]): 4.3 µM

recovery [2, 13]: 87.9% | recovery [2, 14]: 96.5% | efflux ratio [2]: 27 | Papp A→B [2]: 0.61 ×10⁻⁶ cm/s | Papp B→A [2]: 16.6 ×10⁻⁶ cm/s
Structure (SMILES): C[C@H]1O[C@@H](O[C@H]2[C@@H](O)C[C@H](O[C@H]3[C@@H](O)C[C@H](O[C@H]4CC[C@@]5(C)[C@H](CC[C@@H]6[C@@H]5C[C@@H](O)[C@]5(C)[C@@H](C7=CC(=O)OC7)CC[C@]65O)C4)O[C@@H]3C)O[C@@H]2C)C[C@H](O)[C@@H]1O [Digoxin]

Binding Difference ILK (Kd)/EGFR (Kd) (purified recombinant ILK): 2.075 | Kd (purified recombinant ILK): 1.55 µM
Structure (SMILES): C#Cc1cc(Nc2ncnc3cc(OCCOC)c(OCCOC)cc23)ccc1C [Erlotinib-4-methylphenyl analog (E4ME)]

Structure (SMILES): CC(=O)N1CCN(c2ccc(OCC3COC(Cn4ccnc4)(c4ccc(Cl)cc4Cl)O3)cc2)CC1 (stereo not drawn) [Ketoconazole, reference compound]
% Bound [3]: 99.33% | % Recovery [3]: 104.25% | % Bound [4]: 98.33% | % Recovery [4]: 101.01% | % Bound [5]: 99.63% | % Recovery [5]: 100.83%

Structure (SMILES): CC[C@H](C)C(=O)O[C@H]1C[C@@H](C)C=C2C=C[C@H](C)[C@H](CC[C@@H]3C[C@@H](O)CC(=O)O3)[C@H]21 [Mevinolin, reference compound]
Remaining Percentage (%) (Stability in rat plasma; 0 min): 100.00% | Remaining Percentage (%) (Stability in rat plasma; 15 min): 3.78% | Remaining Percentage (%) (Stability in rat plasma; 30 min): 0.00% | Remaining Percentage (%) (Stability in rat plasma; 45 min): 0.00% | Remaining Percentage (%) (Stability in rat plasma; 60 min): 0.00% | Remaining Percentage (%) (Stability in rat plasma; 120 min): 0.00%

Structure (SMILES): CCc1nn(CCCN2CCN(c3cccc(Cl)c3)CC2)c(=O)n1CCOc1ccccc1 [Nefazodone]
Fold change in IC50 (HepG2 cells): 11.33 | IC50 (HepG2 cells; [11]): 6.82 µM | IC50 (HepG2 cells; [12]): 77.2 µM

recovery [2, 13]: 85.1% | recovery [2, 14]: 99% | efflux ratio [2]: 2.41 | Papp B→A [2]: 30.1 ×10⁻⁶ cm/s
Structure (SMILES): COc1cc2nc(N3CCN(C(=O)c4ccco4)CC3)nc(N)c2cc1OC [Prazosin]

Structure (SMILES): CC(=O)[C@H]1CC[C@H]2[C@@H]3CCC4=CC(=O)CC[C@]4(C)[C@H]3CC[C@]12C [Progesterone, reference compound]
solubility [6]: 13.9 µM (≈ 4.36 µg/mL)

Remaining Percentage (%) ([7]; 0 min): 100.00% | Remaining Percentage (%) ([7]; 15 min): 74.15% | Remaining Percentage (%) ([7]; 30 min): 64.03% | Remaining Percentage (%) ([7]; 45 min): 48.07% | Remaining Percentage (%) ([7]; 60 min): 37.61% | Remaining Percentage (%) ([7]; 120 min): 14.60% | Remaining Percentage (%) ([8]; 0 min): 100.00% | Remaining Percentage (%) ([8]; 15 min): 54.01% | Remaining Percentage (%) ([8]; 30 min): 26.58% | Remaining Percentage (%) ([8]; 45 min): 9.84% | Remaining Percentage (%) ([8]; 60 min): 3.10% | Remaining Percentage (%) ([8]; 120 min): 0.13%
Structure (SMILES): CC(C)[N+](C)(CCOC(=O)C1c2ccccc2Oc2ccccc21)C(C)C [Propantheline, reference compound]

recovery [2, 13]: 60.8% | recovery [2, 14]: 80% | efflux ratio [2]: 0.82 | Papp A→B [2]: 19.5 ×10⁻⁶ cm/s | Papp B→A [2]: 15.9 ×10⁻⁶ cm/s
Structure (SMILES): CC(C)NCC(O)COc1cccc2ccccc12 (stereo not drawn) [Propranolol]

binding to purified ILK (purified recombinant ILK): no detectable binding
Structure (SMILES): CC1=NN(C(=O)CC(=O)Nc2ccc(C)cc2)C(=O)C1/N=N/c1cccc(C(=O)O)c1 (stereo not drawn) [QLT0267-like compound (QLT0267), reference compound]

IC50 (CYP 2C8): 3.72 µM
Structure (SMILES): C=C[C@H]1C[N@@]2CC[C@H]1C[C@@H]2[C@@H](O)c1ccnc2ccc(OC)cc12 [Quinidine, reference compound]
